Test system: α1-antitrypsin Z variant (ATZ)
Test: Steady state levels of ATZ in HTO/Z cell line (immunoblot); activity of G2 analogs
Format: cell-based, human
Details: for Activity: G2 and G2 analogs, positive activity if shown to have any activity, not quantified; for IC50: TABLE 1, assay not given; for effect on cellular ATZ levels: 48 hrs incubation, immunoblot, FIG. 8 / FIG. 14
Method: For experiments with G2 analogs, Tet-off inducible cell lines were cultured in absence of doxycycline for at least 12 days to ensure expression of […] or its variants. The cells were then sub-cultured into separate monolayers in fresh complete growth medium and incubated for 48 hours in the absence or presence of G2 analog. […] All compounds available commercially were purchased except for G2-22, which was synthesized with routine chemistry.
Cells were lysed in NP40 buffer and then separated into insoluble and soluble fractions according to a previously established technique. Samples were subjected to immunoblot analysis for AT and GAPDH. For immmunoblot analysis to detect AT or GAPDH, cells were lysed in 50 mM Tris-HCl, 150 mM NaCl, 1% NP-40, pH 8.0. Protein concentrations were determined by BCA protein assay (Pierce Biotechnology, Rockford, IL). […] The membranes were blocked in 5% milk and then incubated overnight at 4° C. with primary antibody for AT (1:1000, Diasorin), LC3 (1:2000, Sigma), p62 (1:1000, Cell signaling, Danvers, MA), ATG5 (1:1000, Cell signaling), mTOR substrate sampler (1:1000 for all antibodies, Cell signaling). Donkey anti-goat Ig (Jackson Labs, Bar Harbor, ME), goat anti-rabbit lg (1:50,000), or goat anti-mouse Ig (1:50,000) were used as secondary antibodies in TBST at RT, 1 hour. Blots were visualized with ECL or West Femto from Pierce. Membranes were re-probed with GAPDH (1:5000, Sigma) as loading control. Insoluble samples were stained with Gel Code Blue as loading control.

CCCCc1ccc2c(=O)n(C)ccc2c1 [G2-60, 6-butyl-2-methylisoquinolin-1(2H)-one]
Activity: Inactive

CN1Cc2cc(Cl)ccc2C1=O [G2-28, 5-chloro-2-methylisoindolin-1-one]
Activity: Active

Cn1ccc2cc(Nc3ccccc3)ccc2c1=O [G2-47, 2-methyl-6-(phenylamino)isoquinolin-1(2H)-one]
Activity: Inactive

CNC(=O)c1cc(Cl)ccc1OC1CCN(C2CCCC2)CC1 [G2-12-2, 5-chloro-2-((1-cyclopentylpiperidin-4-yl)oxy)-N-methylbenzamide]
Activity: Inactive

CN1CCNC(=O)c2cc(Cl)ccc21 [G2-11, 7-chloro-1-methyl-1,2,3,4-tetrahydro-5H-benzo[e][1,4]diazepin-5-one]
Activity: Inactive

Cc1cn(C)c(=O)c2ccc(Cl)cc12 [G2-38, 6-chloro-2,4-dimethylisoquinolin-1(2H)-one]
Activity: Inactive

O=c1ccc2c(Cl)cc(N3CCCCC3)cc2[nH]1 [G2-235, 5-chloro-7-(piperidin-1-yl)quinolin-2(1H)-one]
Activity: Active | IC50: 1000 to 10000 nM

Cn1c(=O)ccc2cc(Cl)ccc21 [G2-58, 6-chloro-1-methylquinolin-2(1H)-one]
Activity: Inactive

CN(C)c1ccc2c(=O)n(C)ccc2c1 [G2-44, 6-(dimethylamino)-2-methylisoquinolin-1(2H)-one]
Activity: Inactive

Cn1ccc2cc(N3CCCCC3)ccc2c1=O [G2-61, 2-methyl-6-(piperidin-1-yl)isoquinolin-1(2H)-one]
Activity: Inactive

Cn1ccc2cc(-c3ccccc3)ccc2c1=O [G2-41, 2-methyl-6-phenylisoquinolin-1(2H)-one]
Activity: Active

Cn1ccc2cc(Nc3ccccn3)ccc2c1=O [G2-49, 2-methyl-6-(pyridin-2-ylamino)isoquinolin-1(2H)-one]
Activity: Inactive

Cn1ccc2cc(S(C)(=O)=O)ccc2c1=O [G2-29, 2-methyl-6-(methylsulfonyl)isoquinolin-1(2H)-one]
Activity: Active

CNC(=O)c1cc(Cl)ccc1OCCC(C)C [G2-17, 5-chloro-2-(isopentyloxy)-N-methylbenzamide]
Activity: Inactive

Cn1ccc2cc(S(N)(=O)=O)ccc2c1=O [G2-67, 2-methyl-1-oxo-1,2-dihydroisoquinoline-6-sulfonamide]
Activity: Inactive

CNC(=O)c1cc(F)ccc1OC [G2-4, 5-fluoro-2-methoxy-N-methylbenzamide]
Activity: Inactive

Cn1ccc2cc(-c3ccccn3)ccc2c1=O [G2-39, 2-methyl-6-(pyridin-2-yl)isoquinolin-1(2H)-one]
Activity: Inactive

Cn1ccc2ccccc2c1=O [G2-34, 2-methylisoquinolin-1(2H)-one]
Activity: Inactive

Cn1c(=O)ccc2ccc(-c3cccnc3)cc21 [G2-83, 1-methyl-7-(pyridin-3-yl)quinolin-2(1H)-one]
Activity: Inactive

O=c1ccc2c(N3CCCCC3)cc(Cl)cc2[nH]1 [G2-195, 7-chloro-5-(piperidin-1-yl)quinolin-2(1H)-one]
Activity: Active | IC50: 1000 to 10000 nM

COc1ccc(Cl)cc1C(=O)NCC(C)C [G2-14, 5-chloro-N-isobutyl-2-methoxybenzamide]
Activity: Inactive

NC(=O)c1cc(Cl)ccc1OC(F)(F)F [G2-6, 5-chloro-2-(trifluoromethoxy)benzamide]
Activity: Inactive

Cn1c(=O)ccc2ccc(Nc3ccccn3)cc21 [G2-91, 1-methyl-7-(pyridin-2-ylamino)quinolin-2(1H)-one]
Activity: Inactive

Cn1ccc2ccc(Cl)cc2c1=O [G2-23, 7-chloro-2-methylisoquinolin-1(2H)-one]
Activity: Inactive

CNC(=O)c1cc(Cl)ccc1OCc1ccccc1 [G2-12-3, 2-(benzyloxy)-5-chloro-N-methylbenzamide]
Activity: Inactive

CN(c1ccccc1)c1ccc2c(=O)n(C)ccc2c1 [G2-48, 2-methyl-6-(methyl(phenyl)amino)isoquinolin-1(2H)-one]
Activity: Active

Cn1ccc2cc(-c3ncccn3)ccc2c1=O [G2-59, 2-methyl-6-(pyrimidin-2-yl)isoquinolin-1(2H)-one]
Activity: Inactive

CCCCCCOc1cc(Cl)c2ccc(=O)[nH]c2c1 [G-211, 5-chloro-7-(hexyloxy)quinolin-2(1H)-one]
Activity: Active | IC50: 1000 to 10000 nM

Cn1ncc2cc(Cl)ccc2c1=O [G2-51, 6-chloro-2-methylphthalazin-1(2H)-one]
Activity: Active

Cn1ccc2cc(N3CCCC3)ccc2c1=O [G2-45, 2-methyl-6-(pyrrolidin-1-yl)isoquinolin-1(2H)-one]
Activity: Active

O=C(c1cc(Cl)c2ccc(=O)[nH]c2c1)N1CCCCC1 [G2-237, 5-chloro-7-(piperidine-1-carbonyl)quinolin-2(1H)-one]
effect on cellular ATZ levels: reduce ATZ levels in a dose-dependent manner | Activity: Active | IC50: 100 to 1000 nM

Cn1ccc2cc(-c3ccn[nH]3)ccc2c1=O [G2-65, 2-methyl-6-(1H-pyrazol-5-yl)isoquinolin-1(2H)-one]
Activity: Inactive

O=c1ncc2cc(Cl)ccc2[nH]1 [G2-71, 6-chloroquinazolin-2(1H)-one]
Activity: Inactive

O=c1ccc2c(-c3ncccn3)cc(Cl)cc2[nH]1 [G2-197, 7-chloro-5-(pyrimidin-2-yl)quinolin-2(1H)-one]
Activity: Active | IC50: 1000 to 10000 nM

CNC(=O)c1cc(Cl)ccc1OC [G2-3, 5-chloro-2-methoxy-N-methylbenzamide]
Activity: Active

Cn1c(=O)ccc2cc(Cl)ccc21 [G2-37, 6-chloro-1-methylquinolin-2(1H)-one]
Activity: Active

Cn1ccc2cccc(Cl)c2c1=O [G2-24, 8-chloro-2-methylisoquinolin-1(2H)-one]
Activity: Inactive

O=c1ccc2ccc(C3CC3)cc2[nH]1 [G2-156, 7-cyclopropylquinolin-2(1H)-one]
Activity: Active | IC50: 1000 to 10000 nM

CNC(=O)c1cc(Cl)ccc1Oc1ccc(Cl)cc1 [G2-16, 5-chloro-2-(4-chlorophenoxy)-N-methylbenzamide]
Activity: Inactive

CCCCCCOc1cc(Cl)cc2[nH]c(=O)ccc12 [G2-218, 7-chloro-5-(hexyloxy)quinolin-2(1H)-one]
effect on cellular ATZ levels: reduce ATZ levels in a dose-dependent manner | Activity: Active | IC50: 100 to 1000 nM

Cn1ccc2c(Cl)cccc2c1=O [G2-22, 5-chloro-2-methylisoquinolin-1(2H)-one]
Activity: Active

Cn1ccc2cc(-c3cccnc3)ccc2c1=O [G2-43, 2-methyl-6-(pyridin-3-yl)isoquinolin-1(2H)-one]
Activity: Inactive

Cn1ccc2cc(N3CCC(c4ccccc4)CC3)ccc2c1=O [G2-62, 2-methyl-6-(4-phenylpiperidin-1-yl)isoquinolin-1(2H)-one]
Activity: Inactive

COc1ccc(Cl)cc1C(=O)NCCCCO [G2-15, 5-chloro-N-(4-hydroxybutyl)-2-methoxybenzamide]
Activity: Inactive

O=c1[nH]ccc2cc(Cl)ccc12 [G2-25, 6-chloroisoquinolin-1(2H)-one]
Activity: Active

COc1ccc(Cl)cc1C(=O)N(C)C [G2-13, 5-chloro-2-methoxy-N,N-dimethylbenzamide]
Activity: Active

— patent US12496297B1, “Compositions of autophagy modulating agents and uses thereof” (Washington University, priority 2020, dated 2025)
